The values that follow come from patent US20250295790A1, “LECTIN-TARGETING CONJUGATES” (Helmholtz-Zentrum für Infektionsforschung GmbH, priority 2021, published 2025).

The structures appear in SMILES notation.

Data set [1] is classed as in vitro ADME. How it is done: Each compound dissolved in DMSO was added to mouse plasma (pH 7.4, 37° C.) or to human plasma (pH 7.4, 37° C.) to yield a final concentration of 1 μM. In addition, procaine and procainamide (dissolved in DMSO) were added to mouse plasma or to human plasma (pH 7.4, 37° C.) to yield a final concentration of 1 μM. Procaine served as positive control as it is unstable in mouse plasma. Procainamide served as negative control as it is stable in mouse plasma. The samples were incubated for 0 min, 15 min, 30 min, 60 min, 90 min, 120 min and 240 min at 37° C. At each time point, 10 μl of the respective sample was extracted with 90 l acetonitrile and 1 μl of caffeine as internal standard for 5 min at 2000 rpm on a MixMate® vortex mixer (Eppendorf). Acetonitrile and caffeine were dispensed using a Mantis Formulatrix®. The samples were centrifuged for 20 min at 2270 ref at 4° C. and the supernatants were transferred to 96-well Greiner V-bottom plates. Samples were analysed using HPLC-MS/MS analysis as described in the respective section. Peak areas of each compound and of the internal standard were analysed using the MultiQuant 3.0 software (AB Sciex). […]
Cell samples as well as plasma stability, plasma protein binding and metabolic stability samples were analysed using an Agilent 1290 Infinity II coupled to an AB Sciex 6500plus mass spec-trometer. […]

The target in data set [2] is LecB PAO1 (Pseudomonas aeruginosa, UniProt Q9HYN5). The format is binding. Conditions: target LecB PAO1. The method, then: LecB (LecB PAO1 according to Hauck et al. and LecB PA14 according to Sommer et al.): A serial dilution of the test compounds was prepared in TBS/Ca, with 20% DMSO as cosolvent. […] Fluorescence was measured and analysed as for LecA. Bottom and top plateaus were fixed according to the control compound in each assay (1-fucose) and the data was re-analysed with these values fixed. A minimum of three independent measurements on three plates was performed for each inhibitor.
Sequence of LecB PAO1 (Q9HYN5 entry or part of it): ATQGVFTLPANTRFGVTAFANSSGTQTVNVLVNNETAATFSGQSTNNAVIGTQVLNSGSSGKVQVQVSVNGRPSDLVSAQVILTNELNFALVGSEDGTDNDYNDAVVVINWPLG

In data set [3] the target is LecB PA14 (Pseudomonas aeruginosa, UniProt A0A0H2ZE85). The data set is classed as binding. The settings on record: target LecB PA14. How it is done: LecB (LecB PAO1 according to Hauck et al. and LecB PA14 according to Sommer et al.): A serial dilution of the test compounds was prepared in TBS/Ca, with 20% DMSO as cosolvent. A concentrated solution of LecB PAO1 or PA14 was diluted in TBS/Ca together with the fluorescent reporter ligand (N-(fluorescein-5-yl)-N′-(α-l-fucopyranosyl ethylen)-thiocarbamide) to yield concentrations of 300 nM and 20 nM, respectively. 10 μL of this mix was added to 10 μL serial dilutions of the test compounds in a black 384-well microtiter plates (Greiner Bio-One, Germany, cat. no. 781900) in triplicates. After centrifugation (2680 ref, 1 min, room temperature), the reactions were incubated for 4-8 h at room temperature in a humidity chamber. Fluorescence was measured and analysed as for LecA. Bottom and top plateaus were fixed according to the control compound in each assay (1-fucose) and the data was re-analysed with these values fixed. A minimum of three independent measurements on three plates was performed for each inhibitor.
Sequence of LecB PA14 (A0A0H2ZE85 entry or part of it): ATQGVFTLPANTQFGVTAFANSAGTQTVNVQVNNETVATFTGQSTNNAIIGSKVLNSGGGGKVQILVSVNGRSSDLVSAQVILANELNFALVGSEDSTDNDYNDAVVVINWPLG

Data set [4] is described as follows: Microsomal stability assay, human S9 liver microsomes. The format is in vitro ADME. Conditions: for metabolic stability t1/2 HLM: human S9 liver fractions; for CLmic S9human: microsomal clearance, calculated from t1/2. How it is done:
S9 liver microsomes (mouse and human, Thermo Fisher) were thawed slowly on ice. 20 mg/ml of microsomes, 2 μl of a 100 μM solution of every compound and 183 μl of 100 mM phosphate buffer were incubated 5 min at 37° C. in a water bath. Reactions were initiated using 10 μl of 20 mM NADPH (Roth). Samples were incubated in three replicates at 37° C. under gentle agitation at 150 rpm.
At 0, 5, 15, 30, and 60 min, reactions were terminated by the addition of 180 μl acetonitrile using a Mantis Formulatrix® dispenser. Samples were vortexed for 5 min using an Eppendorf MixMate® vortex mixer and centrifuged at 2270 ref for 20 min at 4° C. The supernatants were transferred to 96-well Greiner V-bottom plates, sealed and analysed according to the section HPLC-MS/MS analysis. Peak areas of the respective time point of the compounds were normalized to the peak area at time point 0 min. Then half-life was calculated using linear regression (Microsoft Excel®). Clint [μl/min/mg protein] was calculated using the following formula: […]
Cell samples as well as plasma stability, plasma protein binding and metabolic stability samples were analysed using an Agilent 1290 Infinity II coupled to an AB Sciex 6500plus mass spec-trometer. LC conditions were as follows: column: Agilent Zorbax Eclipse Plus C18, 50×2.1 mm, 1.8 m; temperature: 30° C.; injection volume: 5 l per sample; flow rate: 700 l/min. Solvents: A: water+0.1% formic acid; solvent B: 95% acetonitrile/5% H2O+0.1% formic acid. Gradient for 2, 36 and 37: 99% A from 0 min until 1 min; 99-0% A from 1.0 until 2.2 min, 0% A until 3.2 min. Gradient for naproxene: 99% A from 0 min until 1 min; 99-0% A from 1.0 until 5.5 min, 0% A until 6.0 min. Gradient for […] and […]: 99% A from 0 min until 1.0 min, 99-0% A from 1.0 until 3.5 min, 0% A until 3.7 min. Mass transitions for controls and compounds are depicted in table 5.

Data set [5] concerns A549 cells. The data set can be described thus: Cytotoxicity assay (MTT). The data set is classed as cell-based, human. The settings on record: 24 h. The source says: Then supernatant was transferred to a 96-well-plate. […] The experiment was repeated at least three times. The error bars indicate the standard deviation.
Data set [6] has as its target T1, LecA (Pseudomonas aeruginosa, UniProt Q05097).
T1 construct: made in house
In words: Competitive binding assay based on fluorescence polarization with LecA. The settings on record: target LecA; read-out: IC50 ± s.d. How it is done: LecA (according to Joachim et al.): A serial dilution of the test compounds was prepared in TBS/Ca (8.0 g/L NaCl, 2.4 g/L Tris, 0.19 g/L KCl, 0.15 g/L CaCl2·2 H2O), with 30% DMSO as co-solvent. […] The measured intensities were reduced by the values of only LecA in TBS/Ca and fluorescence polarization was calculated. The data was analysed with the MARS Data Analysis Software (BMG Labtech GmbH, Germany) and fitted according to the four-parameter variable slope model. Bottom and top plateaus were fixed according to the control compounds in each assay ((p-nitrophenyl)-p-D-galactoside) and the data was re-analysed with these values fixed. A minimum of three independent measurements on three plates was performed for each inhibitor.
Averages and standard deviations were calculated from at least three independent experiments.

[7] abbreviates: calculated as Ki from IC50, read-out: Ki ± s.d.

T1 sequence (Q05097 whole entry): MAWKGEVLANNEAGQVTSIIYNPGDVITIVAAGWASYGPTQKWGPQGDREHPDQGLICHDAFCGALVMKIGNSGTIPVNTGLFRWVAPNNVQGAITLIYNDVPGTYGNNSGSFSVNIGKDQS

For `CC(C)CC(NC(=O)CNC(=O)C(C)NC(=O)c1ccc(S(=O)(=O)NCC2OC(C)C(O)C(O)C2O)cc1)C(=O)NC(C)C(=O)NC1CCN(c2cc3c(cc2F)c(=O)c(C(=O)O)cn3C2CC2)C1` (stereo not shown) [Compound 37], in data set [1], the “plasma stability, t1/2 human” value came to 2.25 h and the “plasma stability, t1/2 mouse” value was 1.23 h. Moreover, in data set [2], the IC50 stood at 3.59 ± 1.92 µM and the “IC50 ± s.d.” value is recorded as “one-digit micromolar range”. The Ki in data set [2] (setting [7]) is 1.43 ± 0.9 µM. In addition, in data set [3], the IC50 was determined as 0.75 ± 0.16 µM. Also, the Ki in data set [3] (setting [7]) was 0.27 ± 0.06 µM. In addition, in data set [4], the “metabolic stability t1/2 HLM” value was found to be 2.97 h and the “CLmic S9human” value is recorded as 7.8 μL/min/mg protein. This compound yielded an IC50 in data set [5] above 50 µM.
With `CC(C)C[C@H](NC(=O)CNC(=O)[C@H](C)NC(=O)c1ccc(S[C@@H]2O[C@H](CO)[C@H](O)[C@H](O)[C@H]2O)cc1)C(=O)N[C@@H](C)C(=O)N[C@H]1CCN(c2cc3c(cc2F)c(=O)c(C(=O)O)cn3C2CC2)C1` [Compound 36], in data set [4], the “metabolic stability t1/2 HLM” value was determined as 1.55 h and the “CLmic S9human” value is 15 μL/min/mg protein. Further, the IC50 in data set [6] was around 30 µM.
